Laboratory results reported in patent publication EP0726072A2, “Composition for the treatment of hypertension and congestive heart failure, containing an angiotensin II antagonist and an endopeptidase inhibitor” (BRISTOL-MYERS SQUIBB COMPANY, priority 1995, dated 1996).

Tests used:
1K1C hypertensive dogs = assay: Haemodynamic, renal and hormonal effects in conscious 1-kidney-1-clip hypertensive dogs; format: in vivo
Description: The studies described in this experiment were conducted in dogs that had been rendered hypertensive by prior unilateral nephrectomy and constriction of the remaining renal artery. This model is characterized by normal basal levels of plasma renin activity and is relatively resistant to the anti-hypertensive activity of angiotensin converting enzyme inhibitors and AT1 receptor antagonists.
The following experiments were conducted in fasted 1K1C hypertensive dogs lightly restrained in standard canine slings. An indwelling arterial catheter was accessed via a subcutaneous port for measurement of blood pressure via a Gould-Statham pressure transducer. Mean arterial pressure (MAP) was continuously recorded on a Gould chart writer and stored electronically using a Po-Ne-Mah data acquisition system. During each study, urine was collected at 20 minute intervals via a Foley bladder catheter for determination of urine volume. The concentrations of urinary sodium and potassium were measured using ion-selective electrodes and their rates of urinary excretion (µEq/min) were calculated. Glomerular filtration rate (GFR) and effective renal plasma flow (ERPF) were determined by the renal clearances of exogenous creatinine and para-aminohippuric acid (PAH), respectively. The concentrations of creatinine and PAH in sequential samples of urine and plasma were determined by spectrophotometric assays and the clearances were calculated by the standard formula.
Arterial blood samples were drawn at the end of the control period and at 60 minute intervals thereafter for determination of the plasma concentrations of atrial natriuretic peptide (ANP), cyclic GMP and plasma renin activity (PRA) by separate radioimmunoassays. The plasma and urine samples were preserved and the assays were conducted according to standard radioimmunoassay procedures. Urinary excretion rates of cyclic GMP and ANP were calculated and expressed as pmol/min and fmol/min, respectively.
In each study, baseline measurements were obtained during two 20 minute control periods. One of the treatments was then administered and sampling continued at 20 minute intervals for three hours.
To minimize inter-animal variability, each data point was expressed as the change from the average control value for that parameter. Significant differences among treatments were identified by analysis of variance for repeated measures. […] Results are given as mean ± SEM.

cardiomyopathic hamsters = conditions: 30 µmol/kg, i.v.; within 90 minutes; previously shown in this model; cited from earlier work
[1] = 20 min after treatment, 30 µmol/kg iv of each agent
[2] = 40 min after treatment, 30 µmol/kg iv of each agent
[3] = 60 min after treatment, 30 µmol/kg iv of each agent
[4] = 80 min after treatment, 30 µmol/kg iv of each agent
[5] = 100 min after treatment, 30 µmol/kg iv of each agent
[6] = 120 min after treatment, 30 µmol/kg iv of each agent
[7] = 140 min after treatment, 30 µmol/kg iv of each agent
[8] = 160 min after treatment, 30 µmol/kg iv of each agent
[9] = 180 min after treatment, 30 µmol/kg iv of each agent

## O=C(O)CCNC(=O)C(CS)Cc1ccccc1 (racemic) [SQ 28603, (±)-N-[2-(mercaptomethyl)-1-oxo-3-phenylpropyl]-β-alanine]
1K1C hypertensive dogs; 30 µmol/kg iv of each agent, cumulative over 3 hours
  increase in the amount of sodium excreted during the 3 hours after injection: 5.2±2.3 mEq/3 hr
1K1C hypertensive dogs; 30 µmol/kg iv of each agent, not statistically significant compared to vehicle
  Cyclic GMP excretion, change over 3 hr: +32±28 nmol/3 hr
1K1C hypertensive dogs; [1]
  ANP Excretion, Change from control: 20.8 ± 4.9 fmol/min
  Cyclic GMP Excretion, Change from control: 106 ± 295 pmol/min
  Effective Renal Plasma Flow, Change from control: 6 ± 38 mL/min
  Glomerular Filtration Rate, Change from control: 6 ± 11 mL/min
  Mean Arterial Pressure, Change from control: 6±1 mm Hg
  Sodium Excretion, Change from control: 13±4 µEq/min
  Urine Volume, Change from control: 0.29 ± 0.31 mL/min
1K1C hypertensive dogs; [2]
  ANP Excretion, Change from control: 24.0 ± 4.6 fmol/min
  Cyclic GMP Excretion, Change from control: 101 ± 280 pmol/min
  Effective Renal Plasma Flow, Change from control: -5 ± 15 mL/min
  Glomerular Filtration Rate, Change from control: 3 ± 2 mL/min
  Mean Arterial Pressure, Change from control: 9±3 mm Hg
  Sodium Excretion, Change from control: 21±16 µEq/min
  Urine Volume, Change from control: 0.15 ± 0.13 mL/min
1K1C hypertensive dogs; [3]
  ANP Excretion, Change from control: 45.2 ± 24.2 fmol/min
  Cyclic GMP Excretion, Change from control: 338 ± 206 pmol/min
  Effective Renal Plasma Flow, Change from control: 3 ± 20 mL/min
  Glomerular Filtration Rate, Change from control: 6 ± 5 mL/min
  Mean Arterial Pressure, Change from control: 8±3 mm Hg
  Plasma Renin Activity, Change from control: -0.07±0.05 pmol AI/ml/hr
  Sodium Excretion, Change from control: 14±9 µEq/min
  Urine Volume, Change from control: 0.18 ± 0.14 mL/min
1K1C hypertensive dogs; [4]
  ANP Excretion, Change from control: 55.5 ± 19.7 fmol/min
  Cyclic GMP Excretion, Change from control: 226 ± 154 pmol/min
  Effective Renal Plasma Flow, Change from control: -20 ± 6 mL/min
  Glomerular Filtration Rate, Change from control: 5 ± 2 mL/min
  Mean Arterial Pressure, Change from control: 8±2 mm Hg
  Sodium Excretion, Change from control: 25±13 µEq/min
  Urine Volume, Change from control: 0.21 ± 0.15 mL/min
1K1C hypertensive dogs; [5]
  ANP Excretion, Change from control: 41.0 ± 12.3 fmol/min
  Cyclic GMP Excretion, Change from control: 128 ± 178 pmol/min
  Effective Renal Plasma Flow, Change from control: -25 ± 10 mL/min
  Glomerular Filtration Rate, Change from control: 5 ± 4 mL/min
  Mean Arterial Pressure, Change from control: 5±3 mm Hg
  Sodium Excretion, Change from control: 24±12 µEq/min
  Urine Volume, Change from control: 0.07 ± 0.08 mL/min
1K1C hypertensive dogs; [6]
  ANP Excretion, Change from control: 48.3 ± 21.5 fmol/min
  Cyclic GMP Excretion, Change from control: 117 ± 220 pmol/min
  Effective Renal Plasma Flow, Change from control: -15 ± 6 mL/min
  Glomerular Filtration Rate, Change from control: 5 ± 1 mL/min
  Mean Arterial Pressure, Change from control: 3±4 mm Hg
  Plasma Renin Activity, Change from control: -0.02±0.05 pmol AI/ml/hr
  Sodium Excretion, Change from control: 35±19 µEq/min
  Urine Volume, Change from control: 0.12 ± 0.13 mL/min
1K1C hypertensive dogs; [7]
  ANP Excretion, Change from control: 41.8 ± 14.2 fmol/min
  Cyclic GMP Excretion, Change from control: 121 ± 182 pmol/min
  Effective Renal Plasma Flow, Change from control: -11 ± 12 mL/min
  Glomerular Filtration Rate, Change from control: 7 ± 4 mL/min
  Mean Arterial Pressure, Change from control: 4±2 mm Hg
  Sodium Excretion, Change from control: 39±18 µEq/min
  Urine Volume, Change from control: 0.20 ± 0.10 mL/min
1K1C hypertensive dogs; [8]
  ANP Excretion, Change from control: 36.9 ± 12.4 fmol/min
  Cyclic GMP Excretion, Change from control: 100 ± 246 pmol/min
  Effective Renal Plasma Flow, Change from control: -1 ± 12 mL/min
  Glomerular Filtration Rate, Change from control: 9 ± 5 mL/min
  Mean Arterial Pressure, Change from control: 5±2 mm Hg
  Sodium Excretion, Change from control: 44±19 µEq/min
  Urine Volume, Change from control: 0.24 ± 0.11 mL/min
1K1C hypertensive dogs; [9]
  ANP Excretion, Change from control: 29.0 ± 7.9 fmol/min
  Cyclic GMP Excretion, Change from control: 343 ± 170 pmol/min
  Effective Renal Plasma Flow, Change from control: -4 ± 9 mL/min
  Glomerular Filtration Rate, Change from control: 10 ± 4 mL/min
  Mean Arterial Pressure, Change from control: 7±3 mm Hg
  Plasma Renin Activity, Change from control: -0.01±0.7 pmol AI/ml/hr
  Sodium Excretion, Change from control: 44±18 µEq/min
  Urine Volume, Change from control: 0.17 ± 0.06 mL/min
1K1C hypertensive dogs; Control, before treatment
  ANP Excretion: 1.9 ± 0.2 fmol/min
  Cyclic GMP Excretion: 1017 ± 180 pmol/min
  Effective Renal Plasma Flow: 123 ± 15 mL/min
  Glomerular Filtration Rate: 39 ± 5 mL/min
  Mean Arterial Pressure: 132±8 mm Hg
  Plasma Renin Activity: 0.16±0.02 pmol AI/ml/hr
  Sodium Excretion: 40±20 µEq/min
  Urine Volume: 0.38 ± 0.13 mL/min
1K1C hypertensive dogs; summary of TABLE 2, 30 µmol/kg iv of each agent, 3 hours
  sodium excretion, effect in words: increased
1K1C hypertensive dogs; summary of TABLE 3, 30 µmol/kg iv of each agent, 3 hours
  urine volume, effect in words: increased
1K1C hypertensive dogs; summary of TABLE 6, 30 µmol/kg iv of each agent
  Urinary excretion of ANP, effect in words: increased significantly
1K1C hypertensive dogs; summary of Table 1, 30 µmol/kg iv of each agent, 3 hours
  mean arterial pressure (MAP), effect in words: initially increased
Cardiomyopathic hamsters
  plasma atrial natriuretic peptide concentration: doubling
